Type in all cases: binding
For assay [1], the target named is T1, panel of 442 kinases (Homo sapiens, UniProt P43405).
T1 construct: purchased KINOMEscan
To be noted: kinase SYK; compound concentration 10 µM. From the text:
(§1) We assessed the selectivity of members of this scaffold using the KINOMEscan methodology across a near comprehensive panel of 442 kinases [[18,27]].

Assay [2] has as its target T2, panel of 442 kinases (Homo sapiens, UniProt Q9P289).
T2 construct: purchased KINOMEscan
The following applies: Compound Concentration 10 µM.
Text: as §1

Assay [3] concerns the target T3, panel of 442 kinases (Homo sapiens, UniProt Q9H2X6).
T3 construct: purchased KINOMEscan
To be noted: Compound Concentration 10 µM.
Text: as §1

The target in assay [4] is T4, panel of 442 kinases (Homo sapiens, UniProt Q9NYY3).
T4 construct: purchased KINOMEscan
To be noted: Compound Concentration 10 µM.
Text: as §1

T2 sequence (Q9P289 whole entry): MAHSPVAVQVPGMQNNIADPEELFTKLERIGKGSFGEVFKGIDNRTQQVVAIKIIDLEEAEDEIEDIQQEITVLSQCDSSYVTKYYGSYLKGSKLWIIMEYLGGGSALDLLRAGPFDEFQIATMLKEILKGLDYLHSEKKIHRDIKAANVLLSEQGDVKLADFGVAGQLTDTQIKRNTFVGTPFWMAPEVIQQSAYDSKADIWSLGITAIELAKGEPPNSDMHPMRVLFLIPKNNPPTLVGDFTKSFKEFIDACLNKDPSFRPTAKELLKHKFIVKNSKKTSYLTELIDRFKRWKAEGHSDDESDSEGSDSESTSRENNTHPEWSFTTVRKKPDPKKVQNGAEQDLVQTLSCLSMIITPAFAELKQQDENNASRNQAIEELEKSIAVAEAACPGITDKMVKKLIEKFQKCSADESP
T3 sequence (Q9H2X6 whole entry): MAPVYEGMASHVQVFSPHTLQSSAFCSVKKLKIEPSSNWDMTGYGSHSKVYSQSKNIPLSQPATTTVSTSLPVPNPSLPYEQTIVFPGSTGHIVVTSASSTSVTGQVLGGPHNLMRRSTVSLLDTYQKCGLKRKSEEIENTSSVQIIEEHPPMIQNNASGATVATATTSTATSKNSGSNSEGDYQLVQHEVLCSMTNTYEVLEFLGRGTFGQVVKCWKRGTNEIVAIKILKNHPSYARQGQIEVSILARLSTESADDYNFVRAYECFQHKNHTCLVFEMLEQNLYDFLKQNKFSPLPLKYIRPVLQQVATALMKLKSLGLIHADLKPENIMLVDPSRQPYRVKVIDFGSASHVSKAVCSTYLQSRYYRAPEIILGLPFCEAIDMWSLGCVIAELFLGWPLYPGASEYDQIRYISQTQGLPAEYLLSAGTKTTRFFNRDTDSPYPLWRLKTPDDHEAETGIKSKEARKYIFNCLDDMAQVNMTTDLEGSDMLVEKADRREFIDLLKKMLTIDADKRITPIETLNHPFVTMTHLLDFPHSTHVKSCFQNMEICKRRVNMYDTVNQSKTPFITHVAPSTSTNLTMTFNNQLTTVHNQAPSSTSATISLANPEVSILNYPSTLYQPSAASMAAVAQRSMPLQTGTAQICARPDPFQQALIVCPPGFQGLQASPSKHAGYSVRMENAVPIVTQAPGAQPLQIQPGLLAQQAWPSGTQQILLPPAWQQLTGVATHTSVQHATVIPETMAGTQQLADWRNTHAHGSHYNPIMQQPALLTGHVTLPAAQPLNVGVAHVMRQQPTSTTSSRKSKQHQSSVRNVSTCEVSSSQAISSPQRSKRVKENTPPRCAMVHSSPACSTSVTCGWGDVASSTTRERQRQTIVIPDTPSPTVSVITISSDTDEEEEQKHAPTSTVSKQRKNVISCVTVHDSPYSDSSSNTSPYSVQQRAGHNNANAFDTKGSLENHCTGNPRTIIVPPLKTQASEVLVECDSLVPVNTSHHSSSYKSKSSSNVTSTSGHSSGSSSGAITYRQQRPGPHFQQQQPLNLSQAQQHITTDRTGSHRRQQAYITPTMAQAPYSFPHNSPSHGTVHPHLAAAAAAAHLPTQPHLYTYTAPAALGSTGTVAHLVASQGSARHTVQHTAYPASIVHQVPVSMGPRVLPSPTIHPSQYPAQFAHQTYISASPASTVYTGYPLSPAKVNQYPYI
T4 sequence (Q9NYY3 whole entry): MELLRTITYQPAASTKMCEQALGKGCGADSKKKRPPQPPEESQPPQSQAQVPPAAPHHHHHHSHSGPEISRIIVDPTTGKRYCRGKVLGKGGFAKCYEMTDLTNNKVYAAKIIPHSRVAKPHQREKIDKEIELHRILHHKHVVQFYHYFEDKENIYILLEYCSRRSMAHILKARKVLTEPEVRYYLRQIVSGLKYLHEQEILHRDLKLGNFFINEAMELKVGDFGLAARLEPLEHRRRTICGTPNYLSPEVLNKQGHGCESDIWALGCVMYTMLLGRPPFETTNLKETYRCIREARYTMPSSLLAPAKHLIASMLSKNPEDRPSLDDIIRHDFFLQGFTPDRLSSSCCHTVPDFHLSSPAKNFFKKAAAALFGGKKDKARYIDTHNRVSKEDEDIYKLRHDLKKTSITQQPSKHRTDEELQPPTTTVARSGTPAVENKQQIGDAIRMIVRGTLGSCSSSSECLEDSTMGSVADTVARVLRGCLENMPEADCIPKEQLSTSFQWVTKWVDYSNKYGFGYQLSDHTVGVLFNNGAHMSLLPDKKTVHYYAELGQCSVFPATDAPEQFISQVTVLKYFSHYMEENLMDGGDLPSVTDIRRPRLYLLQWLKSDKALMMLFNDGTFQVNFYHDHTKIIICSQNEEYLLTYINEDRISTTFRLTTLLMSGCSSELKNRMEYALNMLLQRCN

For the compound `COc1cc(C(=O)N2CCC(N3CCN(C)CC3)CC2)ccc1Nc1ncc2c(n1)N(C1CCCC1)c1ccccc1C(=O)N2C` [Compound 25, 11-cyclopentyl-2-((2-methoxy-4-(4-(4-methylpiperazin-1-yl)piperidine-1-carbonyl)phenyl)amino)-5-methyl-5H-benzo[e]pyrimido[5,4-b][1,4]diazepin-6(11H)-one], the “% Ctrl, SYK” value on panel of 442 kinases [1] came to 100 % Ctrl. The “KINOMEscan: MST4” value at panel of 442 kinases [2] is reported as 100. Also, the “KINOMEscan: HIPK2” value on panel of 442 kinases [3] is recorded as 100. In addition, on panel of 442 kinases [4], the “KINOMEscan: PLK2” value is reported as 100.

In the case of `COc1cc(C(=O)N2CCC(N3CCN(C)CC3)CC2)ccc1Nc1ncc2c(n1)N1CCc3cccc(c31)C(=O)N2C` [Compound 24], the “% Ctrl, SYK” value at panel of 442 kinases [1] is reported as 88 % Ctrl. Besides, the “KINOMEscan: HIPK2” value on panel of 442 kinases [3] was 88. The “KINOMEscan: PLK2” value at panel of 442 kinases [4] is on record as 8.8.

Turning to `COc1cc(C(=O)N2CCC(N3CCN(C)CC3)CC2)ccc1Nc1ncc2c(n1)N(C)c1ccccc1C(=O)N2C` [15 (LRRK2-IN-1)], the “% Ctrl, SYK” value on panel of 442 kinases [1] is 100 % Ctrl. In addition, the “KINOMEscan: MST4” value at panel of 442 kinases [2] is given as 95. The “KINOMEscan: HIPK2” value on panel of 442 kinases [3] worked out at 88. The “KINOMEscan: PLK2” value at panel of 442 kinases [4] is 100.

As for `CCOc1cc(C(=O)N2CCC(N3CCN(C)CC3)CC2)ccc1Nc1ncc2c(n1)N(C1CCCC1)c1ccccc1C(=O)N2C` [Compound 26], the “% Ctrl, SYK” value on panel of 442 kinases [1] is 100 % Ctrl. Also, the “KINOMEscan: MST4” value on panel of 442 kinases [2] was determined as 100. Further, on panel of 442 kinases [3], the “KINOMEscan: HIPK2” value was 100. Besides, on panel of 442 kinases [4], the “KINOMEscan: PLK2” value was determined as 97.

Values taken from PMC3914206.
